Source: ChEMBL document CHEMBL1201862, “PubChem BioAssay data set” (2004)
One block for each compound: values may come before it. Active and inactive are the calls of the source.

Tests used:
Prothrombin = Prothrombin (Homo sapiens, UniProt P00734); assay: Thrombin 1536 HTS Dose Response Confirmation. [Related pubchem assays: 1046 (Thrombin 1536 HTS; hits were confirmed in this assay)]; type: functional
cells [1] = type: functional, cell-based
[2] = Trypanosoma cruzi growth suppression in host cells – NIH3T3 host cells, beta-gal luminescence, confirmation (AID 2044); type: functional, cell-based;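 also: intracellular parasites grown in NIH/3T3 mouse fibroblasts as host cells; luminescent beta-galactosidase reporter signal from transgenic T. cruzi replicating inside host cells; inhibitors lower the luminescence signal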
cells [3] = type: functional, cell-based; remark: listed apart in the source
[4] = NIH3T3 cell viability loss – ATP luminescence, mouse fibroblasts, counter-screen, dose response (AID 2010); type: functional, cell-based;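 also: cells exposed to compound for about 90 hours before reading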
INS1 = assay: INS-1E survival protection against cytokine death – cell-based, luminescence, retest, dose response (AID 449756); type: functional; conditions: Rattus norvegicus;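 also: cell death triggered by IL-1 beta plus TNF-alpha plus IFN-gamma mixture; protective hits raise ATP signal compared with cytokine alone wells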
[5] = molecular target: DNA (cytosine-5)-methyltransferase 1 (Homo sapiens, UniProt P26358); assay: inhibition of DNA methylation by DNMT1 – biochemical, fluorescent molecular beacon, confirmation (AID 602386); type: functional
Sequence of DNA (cytosine-5)-methyltransferase 1 (P26358 whole entry): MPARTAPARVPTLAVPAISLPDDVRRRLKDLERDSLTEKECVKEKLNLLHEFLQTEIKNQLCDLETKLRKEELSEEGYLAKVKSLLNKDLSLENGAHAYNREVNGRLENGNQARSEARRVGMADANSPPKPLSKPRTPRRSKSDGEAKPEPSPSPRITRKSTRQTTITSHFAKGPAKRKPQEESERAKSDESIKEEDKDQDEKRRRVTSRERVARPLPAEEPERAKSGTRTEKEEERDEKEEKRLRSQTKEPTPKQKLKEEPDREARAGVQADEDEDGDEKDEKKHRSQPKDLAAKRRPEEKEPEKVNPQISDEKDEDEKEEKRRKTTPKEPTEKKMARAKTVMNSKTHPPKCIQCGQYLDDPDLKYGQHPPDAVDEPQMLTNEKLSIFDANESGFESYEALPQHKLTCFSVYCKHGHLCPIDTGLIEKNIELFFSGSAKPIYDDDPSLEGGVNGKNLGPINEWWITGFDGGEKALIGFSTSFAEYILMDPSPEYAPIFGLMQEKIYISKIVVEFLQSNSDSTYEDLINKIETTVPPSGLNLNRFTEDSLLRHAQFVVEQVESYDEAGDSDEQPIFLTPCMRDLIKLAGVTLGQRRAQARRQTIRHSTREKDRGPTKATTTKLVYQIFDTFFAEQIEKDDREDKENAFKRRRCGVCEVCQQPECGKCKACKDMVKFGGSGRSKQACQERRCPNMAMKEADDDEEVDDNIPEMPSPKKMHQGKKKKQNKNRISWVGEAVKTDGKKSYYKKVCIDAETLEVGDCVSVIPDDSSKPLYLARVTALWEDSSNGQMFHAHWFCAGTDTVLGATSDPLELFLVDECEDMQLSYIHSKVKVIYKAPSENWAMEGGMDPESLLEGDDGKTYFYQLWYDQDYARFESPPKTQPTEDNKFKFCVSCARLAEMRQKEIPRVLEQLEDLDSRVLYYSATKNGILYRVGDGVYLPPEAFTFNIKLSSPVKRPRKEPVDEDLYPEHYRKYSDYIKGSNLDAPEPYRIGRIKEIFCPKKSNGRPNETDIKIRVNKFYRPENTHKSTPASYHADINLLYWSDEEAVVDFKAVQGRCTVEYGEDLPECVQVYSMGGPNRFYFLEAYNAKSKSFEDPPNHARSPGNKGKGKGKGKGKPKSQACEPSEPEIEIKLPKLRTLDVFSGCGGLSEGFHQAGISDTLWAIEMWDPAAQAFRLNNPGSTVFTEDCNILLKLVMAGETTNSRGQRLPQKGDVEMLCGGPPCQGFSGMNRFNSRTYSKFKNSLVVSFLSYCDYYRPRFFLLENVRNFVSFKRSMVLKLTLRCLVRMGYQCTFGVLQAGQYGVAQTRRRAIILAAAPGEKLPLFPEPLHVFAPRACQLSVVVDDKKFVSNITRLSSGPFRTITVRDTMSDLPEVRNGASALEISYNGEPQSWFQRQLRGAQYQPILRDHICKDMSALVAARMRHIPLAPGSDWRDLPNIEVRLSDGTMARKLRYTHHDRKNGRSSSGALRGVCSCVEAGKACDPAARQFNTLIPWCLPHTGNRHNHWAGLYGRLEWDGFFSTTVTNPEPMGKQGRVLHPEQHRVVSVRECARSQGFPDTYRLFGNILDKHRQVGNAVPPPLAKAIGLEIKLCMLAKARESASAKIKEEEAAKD

[6] = molecular target: SWI/SNF-related matrix-associated actin-dependent regulator of chromatin subfamily A member 2 (Homo sapiens, UniProt P51531); assay: Luminescence-based cell-based high throughput dose response assay to identify activators of the function of SWI/SNF related, matrix associated, actin dependent regulator of chromatin, subfamily a, member 2 (SMARCA2, BRM).; type: functional
[7] = Counterscreen for activators of the function of SWI/SNF related, matrix associated, actin dependent regulator of chromatin, subfamily a, member 2 (SMARCA2, BRM): Luminescence-based cell-based high throughput dose response assay to identify non-selective compounds using the VP16 reporter assay.; type: functional
[8] = molecular target: T1, DNA repair protein RAD52 homolog (Homo sapiens, UniProt P43351); type: functional, biochemical
T1 sequence (P43351 whole entry): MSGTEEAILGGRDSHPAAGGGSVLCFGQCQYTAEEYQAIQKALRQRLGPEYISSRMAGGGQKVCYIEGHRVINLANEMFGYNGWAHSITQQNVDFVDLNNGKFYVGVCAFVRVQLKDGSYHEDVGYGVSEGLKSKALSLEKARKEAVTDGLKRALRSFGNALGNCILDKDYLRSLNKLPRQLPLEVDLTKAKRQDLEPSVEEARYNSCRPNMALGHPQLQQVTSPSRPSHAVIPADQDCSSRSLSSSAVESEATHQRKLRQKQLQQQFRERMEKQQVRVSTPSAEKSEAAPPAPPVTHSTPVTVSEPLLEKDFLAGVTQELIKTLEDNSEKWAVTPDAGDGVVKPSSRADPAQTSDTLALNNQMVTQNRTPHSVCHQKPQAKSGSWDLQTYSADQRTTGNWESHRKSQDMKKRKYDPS

[9] = molecular target: E3 ubiquitin-protein ligase UHRF1 (Homo sapiens, UniProt Q96T88); assay: Counterscreen for inhibitors of 5-meCpG-binding domain protein 2 (MBD2): TRFRET-based biochemical high throughput dose response assay to identify inhibitors of binding of ubiquitin-like with PHD and ring finger domains 1 (UHRF1) to methylated oligonucleotide.
Sequence of E3 ubiquitin-protein ligase UHRF1 (Q96T88 whole entry, the tested form may be a part): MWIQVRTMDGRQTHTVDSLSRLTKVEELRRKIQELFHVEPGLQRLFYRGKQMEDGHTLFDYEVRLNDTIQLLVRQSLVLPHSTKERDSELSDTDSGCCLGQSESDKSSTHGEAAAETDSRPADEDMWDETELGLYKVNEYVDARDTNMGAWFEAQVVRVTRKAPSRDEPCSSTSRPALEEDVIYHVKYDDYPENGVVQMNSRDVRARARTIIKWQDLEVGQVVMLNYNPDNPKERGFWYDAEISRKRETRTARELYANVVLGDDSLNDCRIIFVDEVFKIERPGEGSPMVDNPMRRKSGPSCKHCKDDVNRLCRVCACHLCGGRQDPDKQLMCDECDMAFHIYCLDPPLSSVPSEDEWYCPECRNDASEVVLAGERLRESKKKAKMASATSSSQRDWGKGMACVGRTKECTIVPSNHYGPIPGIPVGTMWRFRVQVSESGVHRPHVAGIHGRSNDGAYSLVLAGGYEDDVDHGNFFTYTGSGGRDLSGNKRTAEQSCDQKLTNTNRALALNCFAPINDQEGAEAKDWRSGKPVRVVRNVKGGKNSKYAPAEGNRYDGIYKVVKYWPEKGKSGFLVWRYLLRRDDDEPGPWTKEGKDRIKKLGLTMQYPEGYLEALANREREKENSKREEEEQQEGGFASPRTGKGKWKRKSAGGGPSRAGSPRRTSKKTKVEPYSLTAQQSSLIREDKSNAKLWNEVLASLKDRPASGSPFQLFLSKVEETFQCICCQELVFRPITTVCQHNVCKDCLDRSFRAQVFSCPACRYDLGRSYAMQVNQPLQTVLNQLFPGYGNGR

Galanin receptor type 3 = Galanin receptor type 3 (Homo sapiens, UniProt O60755); assay: Fluorescence-based cell-based primary high throughput dose response assay to identify antagonists of the Galanin Receptor 3 (GalR3).; type: functional
Sequence of Galanin receptor type 3 (O60755 whole entry): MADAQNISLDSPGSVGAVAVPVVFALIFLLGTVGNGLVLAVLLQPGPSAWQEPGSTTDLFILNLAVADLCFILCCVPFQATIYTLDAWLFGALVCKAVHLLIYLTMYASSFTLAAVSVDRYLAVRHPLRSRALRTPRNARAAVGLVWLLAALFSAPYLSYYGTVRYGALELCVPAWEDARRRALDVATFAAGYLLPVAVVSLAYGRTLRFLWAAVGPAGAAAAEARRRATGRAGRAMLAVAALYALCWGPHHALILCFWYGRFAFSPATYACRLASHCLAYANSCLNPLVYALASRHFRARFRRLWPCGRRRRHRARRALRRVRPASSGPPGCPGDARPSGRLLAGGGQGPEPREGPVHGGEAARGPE

cells [10] = type: functional, cell-based; conditions: HEK-CNG
[11] = molecular target: T2, COUP transcription factor 2 (Homo sapiens, UniProt P24468); assay: Luminescence-based cell-based high throughput dose response assay to identify inhibitors of COUP-TFII (NR2F2).; type: functional;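 also: HEK293 cells transiently cotransfected with COUP-TFII expression vector and reporter; luciferase reporter luminescence driven by COUP-TFII from the pX2-168 reporter plasmid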
T2 sequence (P24468 whole entry): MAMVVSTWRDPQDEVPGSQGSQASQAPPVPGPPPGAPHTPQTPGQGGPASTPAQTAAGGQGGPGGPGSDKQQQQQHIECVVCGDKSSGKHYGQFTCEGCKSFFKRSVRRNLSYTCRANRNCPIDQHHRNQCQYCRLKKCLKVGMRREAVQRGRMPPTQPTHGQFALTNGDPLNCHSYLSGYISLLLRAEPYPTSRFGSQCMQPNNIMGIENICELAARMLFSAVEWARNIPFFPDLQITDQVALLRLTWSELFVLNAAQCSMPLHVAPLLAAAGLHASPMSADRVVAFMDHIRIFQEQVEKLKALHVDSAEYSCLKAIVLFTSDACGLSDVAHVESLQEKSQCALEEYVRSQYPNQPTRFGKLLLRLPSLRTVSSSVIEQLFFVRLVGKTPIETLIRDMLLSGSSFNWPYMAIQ

[12] = molecular target: T3, Ubiquitin-conjugating enzyme E2 N (Homo sapiens, UniProt P61088); type: functional;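 also: Dose-response confirmation in a TR-FRET assay detecting UBC13-driven polyubiquitin chain formation, inhibition measured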
T3 sequence (P61088 whole entry): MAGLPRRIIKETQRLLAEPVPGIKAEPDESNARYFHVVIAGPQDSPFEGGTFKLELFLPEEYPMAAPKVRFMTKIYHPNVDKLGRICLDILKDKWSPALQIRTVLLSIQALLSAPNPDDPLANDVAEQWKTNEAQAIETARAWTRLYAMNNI

[13] = molecular target: RNA-editing ligase 1, mitochondrial (Trypanosoma brucei brucei, UniProt P86926); assay: inhibition of trypanosome RNA editing ligase – biochemical, fluorescence, Trypanosoma brucei, dose response (AID 1117295); type: functional
Sequence of RNA-editing ligase 1, mitochondrial (P86926 whole entry): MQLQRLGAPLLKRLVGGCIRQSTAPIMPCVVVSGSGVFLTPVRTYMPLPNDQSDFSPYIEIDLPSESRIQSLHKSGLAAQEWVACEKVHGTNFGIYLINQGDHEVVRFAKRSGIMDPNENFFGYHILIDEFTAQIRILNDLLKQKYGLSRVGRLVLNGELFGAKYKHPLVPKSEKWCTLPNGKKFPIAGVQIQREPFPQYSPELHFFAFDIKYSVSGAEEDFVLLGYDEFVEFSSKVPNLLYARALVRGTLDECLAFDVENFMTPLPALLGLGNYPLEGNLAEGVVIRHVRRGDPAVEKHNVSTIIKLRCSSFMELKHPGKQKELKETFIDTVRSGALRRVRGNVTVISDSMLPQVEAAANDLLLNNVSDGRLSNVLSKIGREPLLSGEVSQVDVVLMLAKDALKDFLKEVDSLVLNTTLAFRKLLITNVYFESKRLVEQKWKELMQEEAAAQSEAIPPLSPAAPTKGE

[14] = potency of ADAM10 substrate cleavage blockers – biochemical, QFRET, dose response (AID 743254);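 also: ADAM10 enzyme with the DM2 quenched FRET peptide as substrate; EDANS fluorescence gain as the protease cuts the substrate; inhibitor potency against ADAM10 proteolytic activity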
[15] = molecular target: Disintegrin and metalloproteinase domain-containing protein 17 (Homo sapiens, UniProt P78536); assay: inhibition of ADAM17 substrate cleavage – biochemical, quenched FRET substrate, counter-screen for ADAM10 exosite inhibitor project, dose response (AID 743253)
Sequence of Disintegrin and metalloproteinase domain-containing protein 17 (P78536 whole entry, the tested form may be a part): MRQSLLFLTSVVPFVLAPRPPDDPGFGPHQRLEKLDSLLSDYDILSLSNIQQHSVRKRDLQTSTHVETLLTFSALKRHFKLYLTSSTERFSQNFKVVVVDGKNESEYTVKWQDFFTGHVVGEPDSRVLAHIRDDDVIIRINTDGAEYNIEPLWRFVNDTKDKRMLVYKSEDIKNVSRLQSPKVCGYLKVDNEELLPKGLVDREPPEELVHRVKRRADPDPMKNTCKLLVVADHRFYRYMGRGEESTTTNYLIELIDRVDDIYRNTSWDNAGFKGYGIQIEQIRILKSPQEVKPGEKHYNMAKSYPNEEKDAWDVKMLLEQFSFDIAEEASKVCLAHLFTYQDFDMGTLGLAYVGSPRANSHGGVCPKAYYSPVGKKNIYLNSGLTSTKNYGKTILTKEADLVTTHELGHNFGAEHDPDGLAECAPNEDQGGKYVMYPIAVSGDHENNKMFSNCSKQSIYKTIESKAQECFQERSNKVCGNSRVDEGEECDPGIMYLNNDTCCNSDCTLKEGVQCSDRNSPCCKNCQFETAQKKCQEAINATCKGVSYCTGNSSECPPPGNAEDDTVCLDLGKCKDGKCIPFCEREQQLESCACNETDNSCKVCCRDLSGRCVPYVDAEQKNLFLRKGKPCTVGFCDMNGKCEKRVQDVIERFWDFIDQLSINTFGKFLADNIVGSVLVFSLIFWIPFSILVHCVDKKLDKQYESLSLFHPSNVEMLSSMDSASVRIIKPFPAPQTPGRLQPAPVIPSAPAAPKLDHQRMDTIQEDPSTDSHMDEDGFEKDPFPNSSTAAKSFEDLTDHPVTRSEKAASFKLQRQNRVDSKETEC

[16] = activation of miR-122 Renilla sensor silencing – cell-based, Huh7 psiCHECK-miR122, Renilla luciferase, cherry-picked, dose response (AID 651956); type: functional;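 also: huh7 hepatoma cells stably carrying a psiCHECK-2 miR-122 sensor plasmid; renilla luciferase signal reporting endogenous miR-122 activity after 48 h compound exposure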
[17] = general mammalian cell viability loss – activator set, cherry-pick, cytotoxicity control for miR-122 modulator project, dose response (AID 720690); type: functional, cell-based;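 also: HEK293T human cells scored for general mammalian cytotoxicity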
[18] = Dd2 parasite growth inhibition in erythrocytes – SYBR Green, dry powder samples, set 9, dose response (AID 1159568); type: functional, cell-based
[19] = blockers of HIV-1 envelope-mediated cell-cell fusion – cherry-pick, dose response (AID 652057); type: functional, cell-based
[20] = viability loss in CEM21 cells – cell-based, CellTiter-Glo luminescence, cherry-picked, cytotoxicity control for viral fusion inhibitor project, dose response (AID 652042); type: functional;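 also: potency for signal decrease meaning cytotoxicity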
[21] = blockers of HIV-1 ZM109 envelope-driven cell-cell fusion – HeLa effector, CEM target cells, luciferase, cherry-pick, dose response (AID 652058); type: functional, cell-based;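 also: luciferase signal from HIV-1 Env mediated cell-cell fusion of effector and target cells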
[22] = HIV-1 AD8 envelope cell-cell fusion blockers – cherry-pick, dose response (AID 652062); type: functional, cell-based;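 also: luciferase signal from cell-cell fusion driven by HIV-1 clade B AD8 Env; potency is for inhibitors of fusion seen as a drop in luminescence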
[23] = molecular target: Endoplasmic reticulum aminopeptidase 1 (Homo sapiens, UniProt Q9NZ08); assay: inhibition of human ERAP1 enzyme activity – biochemical, cherry-pick, set 2, plate reader, dose response (AID 743314)
Sequence of Endoplasmic reticulum aminopeptidase 1 (Q9NZ08 whole entry): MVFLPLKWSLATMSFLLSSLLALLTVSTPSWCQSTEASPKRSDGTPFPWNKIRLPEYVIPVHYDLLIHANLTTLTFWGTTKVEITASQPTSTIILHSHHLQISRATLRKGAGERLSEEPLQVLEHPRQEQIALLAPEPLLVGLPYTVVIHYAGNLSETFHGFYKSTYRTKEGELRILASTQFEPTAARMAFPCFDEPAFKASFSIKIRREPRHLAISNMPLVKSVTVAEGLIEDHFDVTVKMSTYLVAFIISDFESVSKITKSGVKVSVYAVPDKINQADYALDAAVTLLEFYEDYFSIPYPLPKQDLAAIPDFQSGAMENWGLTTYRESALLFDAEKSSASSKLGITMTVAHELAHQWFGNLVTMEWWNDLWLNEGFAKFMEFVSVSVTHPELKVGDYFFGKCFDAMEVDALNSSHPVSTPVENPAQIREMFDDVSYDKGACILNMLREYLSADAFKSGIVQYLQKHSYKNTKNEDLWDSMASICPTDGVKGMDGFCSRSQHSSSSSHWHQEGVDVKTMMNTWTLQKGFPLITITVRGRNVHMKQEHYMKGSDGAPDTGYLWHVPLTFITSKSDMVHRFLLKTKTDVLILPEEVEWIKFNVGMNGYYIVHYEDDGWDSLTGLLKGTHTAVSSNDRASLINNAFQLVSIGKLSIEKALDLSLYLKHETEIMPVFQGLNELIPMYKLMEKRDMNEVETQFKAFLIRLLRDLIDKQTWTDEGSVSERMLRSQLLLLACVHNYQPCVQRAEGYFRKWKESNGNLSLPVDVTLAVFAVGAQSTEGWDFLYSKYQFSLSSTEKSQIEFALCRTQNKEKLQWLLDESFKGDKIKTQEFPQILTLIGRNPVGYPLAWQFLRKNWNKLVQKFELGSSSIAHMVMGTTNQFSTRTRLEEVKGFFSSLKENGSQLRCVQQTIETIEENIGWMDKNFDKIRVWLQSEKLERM

[24] = molecular target: T4, Low molecular weight phosphotyrosine protein phosphatase (Homo sapiens, UniProt P24666); assay: inhibition of LMPTP-A enzymatic activity – biochemical, OMFP substrate, fluorescence intensity, set 2, dose response (AID 743307); type: functional
T4 sequence (P24666 whole entry): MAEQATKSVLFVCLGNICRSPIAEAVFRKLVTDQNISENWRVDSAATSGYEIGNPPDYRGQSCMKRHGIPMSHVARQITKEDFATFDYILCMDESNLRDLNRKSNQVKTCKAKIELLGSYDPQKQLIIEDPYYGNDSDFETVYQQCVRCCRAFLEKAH

[25] = molecular target: T4, Low molecular weight phosphotyrosine protein phosphatase; assay: inhibition of human LMPTP enzyme activity – biochemical, absorbance, pNPP substrate, LMPTP-A isoform, set 2, orthogonal assay, dose response (AID 743308); type: functional

IC50 (Prothrombin): 1.48 µM (active)
SMILES: CCC(=O)n1nc(-c2ccc(OC)cc2)nc1NCc1cccs1

SMILES: CCN(CC)CCC(=O)Nc1cccc2c1C(=O)c1ccccc1C2=O
EC50 (cells [1]): > 350 µM (not active) | EC50 [2]: 0.61 µM (active) | EC50 (cells [3]): 59.3 µM (active) | EC50 [4]: 13.4 µM (active) | AC50 (INS1): 4.28 µM (active) | IC50 [5]: 6.86 µM (active) | EC50 [6]: 9.64 µM (active) | EC50 [7]: > 91.3 µM (inactive) | AC50 [8]: 0.801 µM (active) | IC50 [9]: > 43.8 µM (inactive)

SMILES: Cc1ccccc1Cn1c(C)nc2ccccc21
IC50 (Galanin receptor type 3): 0.331 µM (active) | EC50 (cells [10]): > 29.9 µM (inactive) | IC50 [11]: 13.2 µM (inactive)

IC50 [12]: > 20 µM (inactive) | IC50 [13]: > 96.6 µM (inactive)
SMILES: CC[C@@H](C)[C@@H]1CN([C@@H](C)CN2CCC[C@H]2CN2C(N)=NC[C@H]2C(C)C)C(=N)N1CCc1ccc(Cl)c(Cl)c1

IC50 [14]: 10.3 µM (inactive) | IC50 [15]: > 69.5 µM (inactive)
SMILES: CCCCCCNC(=O)O[C@H]1Cn2c(=O)n(CCCCCC)c(=O)n2[C@@H]2CN(S(=O)(=O)c3ccc(C)cc3)C[C@]12O

SMILES: CN1C(=O)c2cc(NC(=O)c3ccc(C(F)(F)F)cc3)ccc2OC[C@H]2O[C@H](CC(=O)NCc3ccc4c(c3)OCO4)CC[C@@H]21
AC50 [16]: 8.04 µM (active) | AC50 [17]: 22 µM (active) | AC50 [18]: 12.6 µM (active)

SMILES: C[C@@H]1CN([C@H](C)CO)S(=O)(=O)c2ccc(C3=CCCCC3)cc2O[C@@H]1CN(C)S(=O)(=O)c1ccc(F)cc1
AC50 [19]: 8.56 µM (active) | AC50 [20]: 32.5 µM (active) | AC50 [21]: 12.1 µM (active) | AC50 [22]: 7.76 µM (active)

SMILES: COC(=O)[C@H]1[C@H](CO)[C@H]2Cn3c(ccc(/C=C/c4ccccc4)c3=O)[C@@H]1N2C(=O)C1CCC1
AC50 [23]: 4.93 µM (active)

IC50 [24]: 1.54 µM (active) | IC50 [25]: 2.88 µM (active)
SMILES: Clc1ccc(-c2cc(NCCCN3CCCCC3)c3ccccc3n2)cc1

SMILES: O=C(O)C[C@H]1CC[C@@H]2[C@H](COC[C@@H](O)CN2S(=O)(=O)c2ccc(Oc3ccccc3)cc2)O1
AC50 [18]: 31.1 µM (active)

IC50 [13]: > 96.6 µM (inactive)
SMILES: COC(=O)C1=C(C)N(Cc2cccc(C(F)(F)F)c2)C(NCc2ccccc2C(F)(F)F)=NC1c1ccccc1C(F)(F)F (configuration not stated)

IC50 [24]: > 80 µM (inactive) | IC50 [25]: > 80 µM (inactive)
SMILES: c1ccc(-c2nc(N3CCCCC3)c3ccccc3n2)cc1
